Experimental data from patent US11000033B2, “Ketone or oxime compound, and herbicide” (NISSAN CHEMICAL CORPORATION, priority 2014, dated 2021).

Key:
Type in all cases: in vivo
[1] = system: Digitaria ciliaris; experiment: Test Example 4: herbicidal effect by soil treatment (symbol F); settings: application herbicide amount 320 g/ha
Summary of the method: (§1)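 Seeds were sown in sterilized diluvial soil, covered with about 1.5 cm of soil, and the soil surface was sprayed with a water-diluted emulsion of the compound at a predetermined rate. Plants grew in a greenhouse at 25° C. to 30° C.; effects were scored visually 3 weeks after application.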

[2] = system: corn; experiment: Test Example 4: effect on crop by soil treatment (symbol c); settings: application herbicide amount 320 g/ha
Summary of the method: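 Seeds were sown in spots on sterilized diluvial soil in a plastic box and covered with about 1.5 cm of soil. Plants were then grown in a greenhouse at 25° C. to 30° C.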

[3] = system: corn; experiment: Test Example 5: effect on crop by foliage application, plastic box (symbol c); settings: 320 g/ha, 3 weeks after application
Summary of the method: (§2)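 Seeds were sown in spots in sterilized diluvial soil held in a plastic box 21 cm × 13 cm × 7 cm deep, covered with about 1.5 cm of soil, and grown in a greenhouse at 25° C. to 30° C.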

[4] = system: beet; experiment: Test Example 5: effect on crop by foliage application, plastic box (symbol f); settings: 320 g/ha, 3 weeks after application
Summary of the method: as §2

[5] = system: Leptochloa chinensis; experiment: Test Example 3: herbicidal effect by foliage application, Wagner pot (symbol D); settings: application herbicide amount 320 g/ha
Summary of the method: (§3)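 Weeds and rice were sown in alluvial soil under 0.1–0.5 cm of standing water and grown for 14 days in a 25–30 °C greenhouse. An emulsion of the compound, diluted in water to a set dose, was sprayed evenly onto the foliage. Effect was scored against fixed criteria 3 weeks after treatment.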

[6] = system: soybean; experiment: Test Example 4: effect on crop by soil treatment (symbol d); settings: application herbicide amount 320 g/ha
Summary of the method: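 Crop seeds, among them rice, wheat, beet and rapeseed, were sown in sterilized diluvial soil and covered with about 1.5 cm of soil. Boxes were kept in a greenhouse at 25° C. to 30° C. for plant growth.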

[7] = system: Stellaria media; experiment: Test Example 5: herbicidal effect by foliage application, plastic box (symbol P); settings: 320 g/ha, 3 weeks after application
Summary of the method: (§4)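 Seeds were sown in sterilized diluvial soil, covered with about 1.5 cm of soil and grown 14 days in a greenhouse at 25° C. to 30° C. An emulsifiable formulation diluted in water to a set rate was sprayed over foliage, and injury was scored 3 weeks later.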

[8] = system: Abutilon theophrasti; experiment: Test Example 4: herbicidal effect by soil treatment (symbol M); settings: application herbicide amount 320 g/ha
Summary of the method: as §1

[9] = system: Echinochloa crus-galli var. crus-galli; experiment: Test Example 4: herbicidal effect by soil treatment (symbol H); settings: application herbicide amount 320 g/ha
Summary of the method: as §1

[10] = system: Setaria viridis; experiment: Test Example 5: herbicidal effect by foliage application, plastic box (symbol G); settings: 320 g/ha, 3 weeks after application
Summary of the method: as §4

[11] = system: Apera spica-venti; experiment: Test Example 5: herbicidal effect by foliage application, plastic box (symbol L); settings: 320 g/ha, 3 weeks after application
Summary of the method: as §4

[12] = system: Lolium multiflorum Lam.; experiment: Test Example 5: herbicidal effect by foliage application, plastic box (symbol K); settings: 320 g/ha, 3 weeks after application
Summary of the method: as §4

[13] = system: rapeseed; experiment: Test Example 5: effect on crop by foliage application, plastic box (symbol g); settings: 320 g/ha, 3 weeks after application
Summary of the method: as §2

[14] = system: directly sowed rice plant; experiment: Test Example 3: effect on crop by foliage application, Wagner pot (symbol b); settings: application herbicide amount 320 g/ha
Summary of the method: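 Alluvial soil in a 1/10000-are Wagner pot was flooded to a water depth of 0.1–0.5 cm. Echinochloa crus-galli var. crus-galli, Leptochloa chinensis, Cyperus difformis and rice were sown into it and grown in a greenhouse at 25–30 °C.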

[15] = system: Lolium multiflorum Lam.; experiment: Test Example 4: herbicidal effect by soil treatment (symbol K); settings: application herbicide amount 320 g/ha
Summary of the method: as §1

[16] = system: Abutilon theophrasti; experiment: Test Example 5: herbicidal effect by foliage application, plastic box (symbol M); settings: 320 g/ha, 3 weeks after application
Summary of the method: as §4

[17] = system: wheat; experiment: Test Example 5: effect on crop by foliage application, plastic box (symbol e); settings: 320 g/ha, 3 weeks after application
Summary of the method: as §2

[18] = system: Avena fatua; experiment: Test Example 5: herbicidal effect by foliage application, plastic box (symbol I); settings: 320 g/ha, 3 weeks after application
Summary of the method: as §4

[19] = system: Cyperus difformis; experiment: Test Example 3: herbicidal effect by foliage application, Wagner pot (symbol E); settings: application herbicide amount 320 g/ha
Summary of the method: as §3

[20] = system: Chenopodium album; experiment: Test Example 5: herbicidal effect by foliage application, plastic box (symbol O); settings: 320 g/ha, 3 weeks after application
Summary of the method: as §4

[21] = system: Amaranthus retroflexus; experiment: Test Example 4: herbicidal effect by soil treatment (symbol N); settings: application herbicide amount 320 g/ha
Summary of the method: as §1

Compound | F: Digitaria ciliaris, herbicidal effect grade [1] | c: corn, effect on crop grade [2] | c: corn, effect on crop grade [3] | f: beet, effect on crop grade [4] | herbicidal effect on D (Leptochloa chinensis), grade 0-5 [5] | d: soybean, effect on crop grade [6] | P: Stellaria media, herbicidal effect grade [7] | M: Abutilon theophrasti, herbicidal effect grade [8] | H: Echinochloa crus-galli var. crus-galli, herbicidal effect grade [9] | G: Setaria viridis, herbicidal effect grade [10] | L: Apera spica-venti, herbicidal effect grade [11] | K: Lolium multiflorum Lam., herbicidal effect grade [12] | g: rapeseed, effect on crop grade [13] | effect on crop b (directly sowed rice plant), grade 0-5 [14] | K: Lolium multiflorum Lam., herbicidal effect grade [15] | M: Abutilon theophrasti, herbicidal effect grade [16] | e: wheat, effect on crop grade [17] | I: Avena fatua, herbicidal effect grade [18] | herbicidal effect on E, grade 0-5 [19] | O: Chenopodium album, herbicidal effect grade [20] | further results
CON=CC1CC(O)=C(c2c(C)cc(C)cc2C)C1=O (mixture of isomers) [3-001] | 2 (Herbicidal ratio of 20% or higher and lower than 40%) | 0 (Herbicidal ratio of 5% or lower (almost no effect)) | 2 (Herbicidal ratio of 20% or higher and lower than 40%) | 0 (Herbicidal ratio of 5% or lower (almost no effect)) | 2 (Herbicidal ratio of 20% or higher and lower than 40%) | 0 (Herbicidal ratio of 5% or lower (almost no effect)) | 0 (Herbicidal ratio of 5% or lower (almost no effect)) | 0 (Herbicidal ratio of 5% or lower (almost no effect)) | 0 (Herbicidal ratio of 5% or lower (almost no effect)) | 3 (Herbicidal ratio of 40% or higher and lower than 70%) | 3 (Herbicidal ratio of 40% or higher and lower than 70%) | 4 (Herbicidal ratio of 70% or higher and lower than 90%) | 0 (Herbicidal ratio of 5% or lower (almost no effect)) | 2 (Herbicidal ratio of 20% or higher and lower than 40%) | 4 (Herbicidal ratio of 70% or higher and lower than 90%) | 0 (Herbicidal ratio of 5% or lower (almost no effect)) | 0 (Herbicidal ratio of 5% or lower (almost no effect)) | 2 (Herbicidal ratio of 20% or higher and lower than 40%) | 0 (Herbicidal ratio of 5% or lower (almost no effect)) | 0 (Herbicidal ratio of 5% or lower (almost no effect)) | N: Amaranthus retroflexus, herbicidal effect grade [21]: 0 (Herbicidal ratio of 5% or lower (almost no effect))
CON=C(C)C1CC(O)=C(c2c(C)cc(C)cc2C)C1=O (mixture of isomers) [3-002] | 0 (Herbicidal ratio of 5% or lower (almost no effect)) | 0 (Herbicidal ratio of 5% or lower (almost no effect)) | 0 (Herbicidal ratio of 5% or lower (almost no effect)) | 0 (Herbicidal ratio of 5% or lower (almost no effect)) | 0 (Herbicidal ratio of 5% or lower (almost no effect)) | 0 (Herbicidal ratio of 5% or lower (almost no effect)) | 0 (Herbicidal ratio of 5% or lower (almost no effect)) | 0 (Herbicidal ratio of 5% or lower (almost no effect)) | 0 (Herbicidal ratio of 5% or lower (almost no effect)) | 2 (Herbicidal ratio of 20% or higher and lower than 40%) | 0 (Herbicidal ratio of 5% or lower (almost no effect)) | 1 (Herbicidal ratio of 5% or higher and lower than 20%) | 0 (Herbicidal ratio of 5% or lower (almost no effect)) | 0 (Herbicidal ratio of 5% or lower (almost no effect)) | 0 (Herbicidal ratio of 5% or lower (almost no effect)) | 0 (Herbicidal ratio of 5% or lower (almost no effect)) | 0 (Herbicidal ratio of 5% or lower (almost no effect)) | 0 (Herbicidal ratio of 5% or lower (almost no effect)) | 0 (Herbicidal ratio of 5% or lower (almost no effect)) | 0 (Herbicidal ratio of 5% or lower (almost no effect)) | N: Amaranthus retroflexus, herbicidal effect grade [21]: 0 (Herbicidal ratio of 5% or lower (almost no effect))
CCc1cc(C#C[Si](C)(C)C)cc(C)c1C1=C(O)CC(CC(C)=NOC)C1=O (mixture of isomers) [6-008] | 5 (Herbicidal ratio of 90% or more (almost completely withered)) | 3 (Herbicidal ratio of 40% or higher and lower than 70%) | 3 (Herbicidal ratio of 40% or higher and lower than 70%) | 0 (Herbicidal ratio of 5% or lower (almost no effect)) | 5 (Herbicidal ratio of 90% or more (almost completely withered)) | 0 (Herbicidal ratio of 5% or lower (almost no effect)) | 0 (Herbicidal ratio of 5% or lower (almost no effect)) | 0 (Herbicidal ratio of 5% or lower (almost no effect)) | 5 (Herbicidal ratio of 90% or more (almost completely withered)) | 5 (Herbicidal ratio of 90% or more (almost completely withered)) | 3 (Herbicidal ratio of 40% or higher and lower than 70%) | 3 (Herbicidal ratio of 40% or higher and lower than 70%) | 0 (Herbicidal ratio of 5% or lower (almost no effect)) | 5 (Herbicidal ratio of 90% or more (almost completely withered)) | 5 (Herbicidal ratio of 90% or more (almost completely withered)) | 0 (Herbicidal ratio of 5% or lower (almost no effect)) | 4 (Herbicidal ratio of 70% or higher and lower than 90%) | 0 (Herbicidal ratio of 5% or lower (almost no effect)) | 5 (Herbicidal ratio of 90% or more (almost completely withered)) | 0 (Herbicidal ratio of 5% or lower (almost no effect)) | N: Amaranthus retroflexus, herbicidal effect grade [21]: 0 (Herbicidal ratio of 5% or lower (almost no effect))
CON=C(C)CC1CC(O)=C(c2c(C)cc(C#CC3CC3)cc2C)C1=O (mixture of isomers) [6-010] | 5 (Herbicidal ratio of 90% or more (almost completely withered)) | 4 (Herbicidal ratio of 70% or higher and lower than 90%) | 4 (Herbicidal ratio of 70% or higher and lower than 90%) | 0 (Herbicidal ratio of 5% or lower (almost no effect)) | 5 (Herbicidal ratio of 90% or more (almost completely withered)) | 0 (Herbicidal ratio of 5% or lower (almost no effect)) | 0 (Herbicidal ratio of 5% or lower (almost no effect)) | 3 (Herbicidal ratio of 40% or higher and lower than 70%) | 5 (Herbicidal ratio of 90% or more (almost completely withered)) | 5 (Herbicidal ratio of 90% or more (almost completely withered)) | 5 (Herbicidal ratio of 90% or more (almost completely withered)) | 4 (Herbicidal ratio of 70% or higher and lower than 90%) | 0 (Herbicidal ratio of 5% or lower (almost no effect)) | 5 (Herbicidal ratio of 90% or more (almost completely withered)) | 5 (Herbicidal ratio of 90% or more (almost completely withered)) | 0 (Herbicidal ratio of 5% or lower (almost no effect)) | 4 (Herbicidal ratio of 70% or higher and lower than 90%) | 3 (Herbicidal ratio of 40% or higher and lower than 70%) | 5 (Herbicidal ratio of 90% or more (almost completely withered)) | 3 (Herbicidal ratio of 40% or higher and lower than 70%) | N: Amaranthus retroflexus, herbicidal effect grade [21]: 1 (Herbicidal ratio of 5% or higher and lower than 20%)
